Measured values from ChEMBL document CHEMBL1201862, “PubChem BioAssay data set” (2004).
Where “and” joins values, the source holds several entries; their conditions need not be identical. Equal values may be shown once.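 Results reflect a 48-hour exposure of cells in 96-well plates to compound at five concentrations. Here, GI50 denotes the concentration required for 50% inhibition of growth.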 Calls of active or inactive are those of the source. Cut-off read from the data, not from the text of the source: active = GI50 up to about 1.1 µM and inactive = higher.

How the values were obtained:
Assay in all cases: inhibition of tumour cell growth, NCI panel, 48 h
A549 = system: A549
BT-549 = system: BT-549
DMS-114 = system: DMS-114
DMS-273 = system: DMS-273
DU-145 = system: DU-145
EKVX = system: EKVX
HCT-116 = system: HCT-116
HT-29 = system: HT-29
Hs-578T = system: Hs-578T
K562 = system: K562
KM-20L2 = system: KM-20L2
KM12 = system: KM12
LOX IMVI = system: LOX IMVI
LXFL 529 = system: LXFL 529
M14 = system: M14
MCF7 = system: MCF7
MDA-MB-231 = system: MDA-MB-231
MDA-MB-435 = system: MDA-MB-435
MDA-N = system: MDA-N
MOLT-4 = system: MOLT-4
Malme-3M = system: Malme-3M
NCI-H23 = system: NCI-H23
NCI-H460 = system: NCI-H460
NCI/ADR-RES = system: NCI/ADR-RES
OVCAR-3 = system: OVCAR-3
OVCAR-5 = system: OVCAR-5
OVCAR-8 = system: OVCAR-8
PC-3 = system: PC-3
RPMI-8226 = system: RPMI-8226
RXF 393 = system: RXF 393
RXF 631 = system: RXF 631
SF-268 = system: SF-268
SK-MEL-2 = system: SK-MEL-2
SNB-78 = system: SNB-78
SR = system: SR
SW-620 = system: SW-620
T47D = system: T47D
UACC-257 = system: UACC-257
UACC-62 = system: UACC-62
XF498 = system: XF498
786-0 = system: 786-0
A498 = system: A498
ACHN = system: ACHN
CAKI-1 = system: CAKI-1
CCRF-CEM = system: CCRF-CEM
COLO 205 = system: COLO 205
DLD-1 = system: DLD-1
HCC 2998 = system: HCC 2998
HCT-15 = system: HCT-15
HOP-18 = system: HOP-18
HOP-62 = system: HOP-62
HOP-92 = system: HOP-92
IGROV-1 = system: IGROV-1
M19-MEL = system: M19-MEL
NCI-H226 = system: NCI-H226
NCI-H522 = system: NCI-H522
OVCAR-4 = system: OVCAR-4
SF-295 = system: SF-295
SF-539 = system: SF-539
SK-MEL-28 = system: SK-MEL-28
SK-MEL-5 = system: SK-MEL-5
SN12C = system: SN12C
SNB-19 = system: SNB-19
SNB-75 = system: SNB-75
TK-10 = system: TK-10
U-251 = system: U-251
UO-31 = system: UO-31

CC(C)(O)/C=C/C(=O)[C@](C)(O)[C@H]1[C@H](O)C[C@@]2(C)[C@@H]3CC=C4[C@@H](C=C(O)C(=O)C4(C)C)[C@]3(C)C(=O)C[C@]12C [CUCURBITACIN I]
GI50 (A549): 493 nM (active) and 271 nM (active) | GI50 (BT-549): 14.7 nM (active) | GI50 (DMS-114): 1.21 µM (inactive) and 698 nM (active) | GI50 (DMS-273): 243 nM (active) and 218 nM (active) | GI50 (DU-145): < 10 nM (active) | GI50 (EKVX): 975 nM (active) and 1.27 µM (inactive) | GI50 (HCT-116): 631 nM (active) and 363 nM (active) | GI50 (HT-29): 538 nM (active) and 321 nM (active) | GI50 (Hs-578T): 48.5 nM (active) | GI50 (K562): 841 nM (active) and 504 nM (active) | GI50 (KM-20L2): 482 nM (active) and 318 nM (active) | GI50 (KM12): 1.9 µM (inactive) and 1.12 µM (inactive) | GI50 (LOX IMVI): 430 nM (active) and 238 nM (active) | GI50 (LXFL 529): 339 nM (active) and 513 nM (active) | GI50 (M14): 548 nM (active) and 303 nM (active) | GI50 (MCF7): 24.5 nM (active) | GI50 (MDA-MB-231): 22.3 nM (active) | GI50 (MDA-MB-435): < 10 nM (active) | GI50 (MDA-N): < 10 nM (active) | GI50 (MOLT-4): 1.88 µM (inactive) and 1.61 µM (inactive) | GI50 (Malme-3M): 536 nM (active) and 329 nM (active) | GI50 (NCI-H23): 2.38 µM (inactive) and 1.33 µM (inactive) | GI50 (NCI-H460): 288 nM (active) and 543 nM (active) | GI50 (NCI/ADR-RES): 126 nM (active) | GI50 (OVCAR-3): 395 nM (active) and 783 nM (active) | GI50 (OVCAR-5): 3.03 µM (inactive) and 3.24 µM (inactive) | GI50 (OVCAR-8): 1.3 µM (inactive) and 2.13 µM (inactive) | GI50 (PC-3): 23.8 nM (active) | GI50 (RPMI-8226): 281 nM (active) and 318 nM (active) | GI50 (RXF 393): 225 nM (active) and 440 nM (active) | GI50 (RXF 631): 372 nM (active) and 536 nM (active) | GI50 (SF-268): 475 nM (active) and 251 nM (active) | GI50 (SK-MEL-2): 442 nM (active) and 237 nM (active) | GI50 (SNB-78): 303 nM (active) and 528 nM (active) | GI50 (SR): 644 nM (active) and 410 nM (active) | GI50 (SW-620): 334 nM (active) and 541 nM (active) | GI50 (T47D): 104 nM (active) | GI50 (UACC-257): 324 nM (active) and 555 nM (active) | GI50 (UACC-62): 805 nM (active) and 607 nM (active) | GI50 (XF498): 284 nM (active) and 330 nM (active)

CN(C)CC1(C)CC/C(=C\c2ccc3c(c2)OCO3)C1=O (stereo not given)
GI50 (786-0): > 100 µM (inactive) | GI50 (A498): > 100 µM (inactive) | GI50 (A549): > 100 µM (inactive) | GI50 (ACHN): > 100 µM (inactive) | GI50 (CAKI-1): 6.58 µM (inactive) | GI50 (CCRF-CEM): 59.4 µM (inactive) | GI50 (COLO 205): > 100 µM (inactive) | GI50 (DLD-1): > 100 µM (inactive) | GI50 (DMS-114): 57.4 µM (inactive) | GI50 (DMS-273): > 100 µM (inactive) | GI50 (HCC 2998): > 100 µM (inactive) | GI50 (HCT-116): > 100 µM (inactive) | GI50 (HCT-15): > 100 µM | GI50 (HOP-18): > 100 µM (inactive) | GI50 (HOP-62): > 100 µM (inactive) | GI50 (HOP-92): > 100 µM (inactive) | GI50 (HT-29): > 100 µM (inactive) | GI50 (IGROV-1): > 100 µM (inactive) | GI50 (K562): 53.6 µM (inactive) | GI50 (KM-20L2): 3.72 µM (inactive) | GI50 (KM12): > 100 µM (inactive) | GI50 (LOX IMVI): > 100 µM (inactive) | GI50 (LXFL 529): > 100 µM (inactive) | GI50 (M14): > 100 µM (inactive) | GI50 (M19-MEL): > 100 µM (inactive) | GI50 (MOLT-4): 96.4 µM (inactive) | GI50 (Malme-3M): > 100 µM (inactive) | GI50 (NCI-H226): > 100 µM (inactive) | GI50 (NCI-H23): > 100 µM (inactive) | GI50 (NCI-H460): > 100 µM (inactive) | GI50 (NCI-H522): 39.5 µM (inactive) | GI50 (OVCAR-3): > 100 µM (inactive) | GI50 (OVCAR-4): > 100 µM (inactive) | GI50 (OVCAR-5): > 100 µM (inactive) | GI50 (OVCAR-8): > 100 µM (inactive) | GI50 (RPMI-8226): 27.5 µM (inactive) | GI50 (RXF 393): > 100 µM (inactive) | GI50 (SF-268): > 100 µM (inactive) | GI50 (SF-295): > 100 µM (inactive) | GI50 (SF-539): > 100 µM (inactive) | GI50 (SK-MEL-28): > 100 µM (inactive) | GI50 (SK-MEL-2): > 100 µM (inactive) | GI50 (SK-MEL-5): > 100 µM (inactive) | GI50 (SN12C): > 100 µM (inactive) | GI50 (SNB-19): > 100 µM (inactive) | GI50 (SNB-75): > 100 µM (inactive) | GI50 (SNB-78): > 100 µM (inactive) | GI50 (SR): 45.9 µM (inactive) | GI50 (SW-620): 92.9 µM (inactive) | GI50 (TK-10): > 100 µM (inactive) | GI50 (U-251): > 100 µM (inactive) | GI50 (UACC-257): > 100 µM (inactive) | GI50 (UACC-62): 67.3 µM (inactive) | GI50 (UO-31): > 100 µM (inactive) | GI50 (XF498): > 100 µM (inactive)
